Source: US10052306B2 (LUC THERAPEUTICS, INC., priority 2013, dated 2018)
Read-outs that look alike come from different tables or passages of the source.

Experiments:
NR1/NR2B [1] = target: NR1/NR2B (Homo sapiens (Human), UniProt Q05586+Q13224); experiment: Cell assay: FDSS Ca2+ influx inhibition in HEK293 cells expressing NR1/NR2B; settings: Binned Activity;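 further: Fluo-8 Ca2+ signal read on Hamamatsu FDSS 6000 after glutamate, glycine and Ca2+ challenge following 10 min compound preincubation, end/baseline fluorescence ratio compared with MK801 control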
NR1/NR2B (Homo sapiens (Human), UniProt Q05586+Q13224), sequence (Q13224 27-1484, other chains not shown): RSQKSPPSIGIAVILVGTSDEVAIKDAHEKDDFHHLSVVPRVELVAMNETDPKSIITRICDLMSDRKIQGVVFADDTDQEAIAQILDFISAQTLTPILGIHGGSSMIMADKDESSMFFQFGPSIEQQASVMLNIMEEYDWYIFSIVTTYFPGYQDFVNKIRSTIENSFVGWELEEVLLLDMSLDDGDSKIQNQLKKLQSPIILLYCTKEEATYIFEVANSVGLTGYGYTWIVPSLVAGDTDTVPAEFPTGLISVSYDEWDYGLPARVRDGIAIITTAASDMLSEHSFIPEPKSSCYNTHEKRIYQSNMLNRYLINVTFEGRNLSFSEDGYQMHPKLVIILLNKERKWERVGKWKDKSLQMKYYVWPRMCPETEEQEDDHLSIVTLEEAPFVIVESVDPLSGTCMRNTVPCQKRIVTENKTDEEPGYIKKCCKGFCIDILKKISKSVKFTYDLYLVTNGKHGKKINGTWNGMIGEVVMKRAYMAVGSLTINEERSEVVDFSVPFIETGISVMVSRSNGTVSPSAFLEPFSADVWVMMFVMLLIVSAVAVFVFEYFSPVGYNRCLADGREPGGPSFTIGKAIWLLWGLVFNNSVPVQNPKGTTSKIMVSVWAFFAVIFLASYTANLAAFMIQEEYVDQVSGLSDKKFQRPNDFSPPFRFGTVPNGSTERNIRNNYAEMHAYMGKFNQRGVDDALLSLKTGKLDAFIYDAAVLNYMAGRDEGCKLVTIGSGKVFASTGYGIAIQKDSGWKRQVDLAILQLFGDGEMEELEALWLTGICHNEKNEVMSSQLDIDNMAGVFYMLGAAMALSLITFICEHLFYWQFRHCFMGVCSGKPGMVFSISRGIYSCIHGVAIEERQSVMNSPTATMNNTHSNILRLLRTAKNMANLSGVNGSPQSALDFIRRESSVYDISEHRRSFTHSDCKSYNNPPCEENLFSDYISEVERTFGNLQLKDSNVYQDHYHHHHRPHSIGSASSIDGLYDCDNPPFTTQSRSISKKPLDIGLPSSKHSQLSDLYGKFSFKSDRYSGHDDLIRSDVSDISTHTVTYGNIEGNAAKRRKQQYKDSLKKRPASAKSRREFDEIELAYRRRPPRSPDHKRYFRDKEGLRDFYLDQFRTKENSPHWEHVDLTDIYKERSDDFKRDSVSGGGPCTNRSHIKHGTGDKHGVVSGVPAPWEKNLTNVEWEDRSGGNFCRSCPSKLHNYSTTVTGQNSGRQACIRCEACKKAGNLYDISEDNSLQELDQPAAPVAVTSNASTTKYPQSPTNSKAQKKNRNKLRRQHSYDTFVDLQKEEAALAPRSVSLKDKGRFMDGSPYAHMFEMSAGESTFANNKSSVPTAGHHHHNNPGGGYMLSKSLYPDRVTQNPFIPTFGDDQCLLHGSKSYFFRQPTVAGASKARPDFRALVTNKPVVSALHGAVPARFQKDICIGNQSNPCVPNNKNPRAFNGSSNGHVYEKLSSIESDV
Description: (§1) Cell Culture and plating: HEK293 cells expressing NR1/NR2B (Chantest, Cleveland, Ohio) were grown to 70-80% confluency as an adherent monolayer in standard tissue culture flasks at 37° C., 5% CO2 per supplier's instructions. NR2B expression was induced by incubation with 0.3-0.4 μg/ml tetracycline in the presence of 4 mM ARL-15896 for 18-24 hours under the same growth conditions, then transferred to 30° C. for another 3-5 hours.
(§2) After induction, cell culture medium was removed and cells were rinsed once with Ca^2+ and Mg^2+-free Dulbecco's phosphate buffered saline. Cells were then removed from the flask using TrypLE™ Express (Life Technologies) according to the manufacturer's instructions and collected to 50 ml centrifuge tubes. Following two washes in Ca^2+/Mg^2+-free HBSS with 20 mM HEPES (HHnoCa), cells were counted and viability assessed using trypan blue. To load cells with Ca^2+-sensitive dye, they were resuspended in fluo-8 plus Component B (AAT Bioquest Products) diluted in HHnoCa and incubated 15 minutes at 37° C., followed by 30 minutes at room temp (in dark). Cells were then washed and resuspended in HHnoCa to remove extracellular dye and plated in 384-well plates (Falcon, uncoated) at 20,000-30,000 cells/well in a final volume of 25 μl/well.
(§3) FDSS Assay: To each well of the plate, 10 μL test compound, control (MK801) or HHnoCa buffer was added to a final concentration of 10 μM with a final concentration of DMSO of 0.1%. Following 10 minutes pre-incubation in the dark, plates are loaded onto the Hamamatsu FDSS 6000. After collecting baseline fluorescence images, 3 μM glutamate, 3 glycine, and 1 mM Ca^2+ in HHnoCa buffer is added to each well, and Ca^2+ is recorded for 3 minutes. Data were processed by computing ratio of fluorescence at the end of data collection to baseline fluorescence to assess degree of Ca′ influx inhibition relative to that observed in MK801.

NR1/NR2B [2] = target: NR1/NR2B (Homo sapiens (Human), UniProt Q13224); experiment: as above; settings: read-out: NR2B NAM IC50
NR1/NR2B (Homo sapiens (Human), UniProt Q13224), sequence (Q13224 27-1484, other chains not shown): as above
Description: as §1, §2, §3

[3] = HEK293 cells expressing NR1/NR2B, Ca2+ influx, binned NR2B NAM IC50
[4] = HEK293 cells expressing NR1/NR2B, Ca2+ influx

SMILES	IC50 (NR1/NR2B [1]; [3]) [µM]	IC50 (NR1/NR2B [2]; [4]) [µM]	IC50 (NR1/NR2B [1]) [µM]	IC50 (NR1/NR2B [2]) [µM]
CS(=O)(=O)Nc1ccc(C(=O)CN2C[C@@H]3C[C@@](O)(Cc4ccccc4)C[C@@H]3C2)cc1 [Example 146, N-(4-(2-((3aR,5r,6aS)-5-benzyl-5-hydroxyhexahydrocyclo-penta[c]pyrrol-2(1H)-yl)acetyl)phenyl)methane-sulfonamide]	0.1 to 1	0.326		
O=C(CN1C[C@@H]2C[C@@](O)(Cc3ccc(Cl)cc3)C[C@@H]2C1)c1ccc(O)cn1 [Example 218, 2-((3aR,5r,6aS)-5-(4-chlorobenzyl)-5-hydroxyhexaydrocyclo-penta[c]pyrrol-2(1H)-yl)-1-(5-hydroxypyridin-2-yl)ethanone]	0.1 to 1	0.374		
O=C(CN1C[C@@H]2C[C@@](O)(Cc3ccc(F)cc3)C[C@@H]2C1)c1ccc(O)c(F)c1 [Example 169, 1-(3-fluoro-4-hydroxyphenyl)-2-((3aR,5r,6aS)-5-(4-fluorobenzyl)-5-hydroxyhexahydrocyclo-penta[c]pyrrol-2(1H)-yl)ethanone]	0.1 to 1	0.117		
O=C(CN1C[C@@H]2C[C@@](O)(Cc3ccc(F)c(F)c3)C[C@@H]2C1)c1ccc(O)cn1 [Example 239, 2-((3aR,5r,6aS)-5-(3,4-difluorobenzyl)-5-hydroxyhexahydrocyclo-penta[c]pyrrol-2(1H)-yl)-1-(5-hydroxypyridin-2-yl)ethanone]	> 10	10		
O=C(Nc1ccc(F)cc1)N1C[C@@H]2C[C@@](O)(c3ccccc3)C[C@@H]2C1 [Example 6]	> 10	10		
O=C(CN1C[C@@H]2C[C@@](O)(Cc3ccccc3)C[C@@H]2C1)c1ccc(Cl)nc1 [Example 155, 2-((3aR,5r,6aS)-5-benzyl-5-hydroxyhexahydrocyclo-penta[c]pyrrol-2(1H)-yl)-1-(6-chloropyridin-3-yl)ethanone]	> 10	10		
O=C(CN1C[C@@H]2C[C@@](O)(Cc3ccccc3)C[C@@H]2C1)c1ccc(O)nc1 [Example 178, 2-[(3aR,5R,6aS)-5-benzyl-5-hydroxy-octahydrocyclopenta[c]pyrrol-2-yl]-1-(6-hydroxypyridin-3-yl)ethan-1-one]	> 10	10		
COc1cccc(NC(=O)N2C[C@H]3CC(Cc4ccccc4)C[C@H]3C2)c1 (stereo partly drawn) [Example 294, (3aR,6aS)-5-benzyl-N-(3-methoxyphenyl) hexahydro-cylcopenta[c]pyrrole-2(1H)-carboxamide]	> 10	10		
CC(C)(C)c1ccc([C@]2(O)C[C@H]3CN(C(=O)Nc4cccc(Cl)c4)C[C@H]3C2)cc1 [Example 56, 5-(4-tert-butylphenyl)-N-(3-chlorophenyl)-5-hydroxy-octahydrocyclopenta[c] pyrrole-2-carboxamide]	> 10	10		
O=C(CN1C[C@@H]2C[C@@](O)(Cc3ccccc3)C[C@@H]2C1)c1ccc(-c2ccccn2)cc1 [Example 266, 2-((3aR,5r,6aS)-5-benzyl-5-hydroxyhexahydrocyclo-prenta[c]pyrrol-2(1H)-yl)-1-(4-(pyridin-2-yl)phenyl)ethanone]	> 10	10		
O=C(CN1C[C@@H]2C[C@@](O)(Cc3ccccc3)C[C@@H]2C1)c1ccc(-c2ccccc2)cc1 [Example 258, 1-([1,1′-biphenyl]-4-yl)-2-((3aR,5r,6aS)-5-benzyl-5-hydroxyhexahydrocyclo-penta[c]pyrrol-2(1H)-yl)ethanone]	> 10	10		
COc1ccc(C)cc1NC(=O)N1C[C@@H]2C[C@@](O)(c3ccccc3)C[C@@H]2C1 [Example 27, 5-hydroxy-N-(2-methoxy-5-methylphenyl)-5-phenyl-octahydrocyclopenta[c] pyrrole-2-carboxamide]			> 10	10
Cc1cccc(-c2ccc(C(=O)CN3C[C@@H]4C[C@@](O)(Cc5ccccc5)C[C@@H]4C3)cc2)c1 [Example 264, 2-((3aR,5r,6aS)-5-benzyl-5-hydroxyhexahydrocyclo-penta[c]pyrrol-2(1H)-yl)-1-(3′-methyl-[1,1′-biphenyl]-4-yl)ethanone]	> 10	10		
CC(C)(C)c1ccc([C@]2(O)C[C@H]3CN(C(=O)Nc4ccccc4)C[C@H]3C2)cc1 [Example 54]	> 10	10		

Second part, led by results:

IC50 (NR1/NR2B [1]; [3]) [µM]	IC50 (NR1/NR2B [2]; [4]) [µM]	SMILES	IC50 (NR1/NR2B [1]) [µM]	IC50 (NR1/NR2B [2]) [µM]
> 10	10	O=C(Nc1cccc(Cl)c1)N1C[C@@H]2C[C@@](O)(Cc3ccccc3)C[C@@H]2C1 [Example 118, (3aR,5r,6aS)-5-benzyl-N-(3-chlorophenyl)-5-hydroxyhexahydrocyclo-penta[c]pyrrole-2(1H)-carboxamide]		
> 10	10	O=C(COc1ccc(C(=O)CN2C[C@@H]3C[C@@](O)(Cc4ccccc4)C[C@@H]3C2)cc1F)c1ccc(O)c(F)c1 [Example 172, 2-((3aR,5r,6aS)-5-benzyl-5-hydroxyhexahydrocyclo-penta[c]pyrrol-2(1H)-yl)-1-(3-fluoro-4-(2-(3-fluoro-4-hydroxyphenyl)-2-oxoethoxy)phenyl)ethanone]		
1 to 10	6.4	O=C(CN1C[C@@H]2C[C@@](O)(Cc3ccc(F)cc3)C[C@@H]2C1)c1ccc(O)cn1 [Example 166, 2-((3aR,5r,6aS)-5-(4-fluorobenzyl)-5-hydroxyhexahydrocyclo-penta[c]pyrrol-2(1H)-yl)-1-(5-hydroxypyridin-2-yl)ethanone]		
> 10	10	O=C(Nc1cccc(Cl)c1)N1C[C@@H]2C[C@@](O)(c3ccccc3)C[C@@H]2C1 [Example 4, N-(3-chlorophenyl)-5-hydroxy-5-phenyl-octahydrocyclopenta[c] pyrrole-2-carboxamide]		
> 10	10	O=C(CN1C[C@@H]2C[C@@](O)(Cc3ccccc3)C[C@@H]2C1)c1cnc(OCc2ccccc2)cn1 [Example 162, 2-((3aR,5r,6aS)-5-benzyl-5-hydroxyhexahydrocyclo-penta[c]pyrrol-2(1H)-yl)-1-(5-(benzyloxy)pyrazin-2-yl)ethanone]		
0.1 to 1	0.111	O=C(CN1C[C@@H]2C[C@@](O)(Cc3cccs3)C[C@@H]2C1)c1ccc(O)c(F)c1 [Example 220, 1-(3-fluoro-4-hydroxyphenyl)-2-(5-hydroxy-5-(thiophen-2-ylmethyl)hexahydro-cyclopenta[c]pyrrol-2(1H)-yl)ethanone]		
> 10	10	COC(=O)c1ccc(NC(=O)N2C[C@H]3C[C@@H](c4ccccc4)C[C@H]3C2)cc1 [Example 103, methyl 4-[({5-phenyl-octahydrocyclopenta[c]pyrrol-2-yl}carbonyl)amino]benzo-ate]		
0.1 to 1	0.11	O=C(CN1C[C@@H]2C[C@@](O)(Cc3cccc(F)c3F)C[C@@H]2C1)c1ccc(O)cc1 [Example 249, 2-((3aR,5r,6aS)-5-(2,3-difluorobenzyl)-5-hydroxyhexahydrocyclo-penta[c]pyrrol-2(1H)-yl)-1-(4-hydroxyphenyl)ethanone]		
> 10	10	COc1ncc(-c2ccc(C(=O)CN3C[C@@H]4C[C@@](O)(Cc5ccccc5)C[C@@H]4C3)cc2)cn1 [Example 279, 2-((3aR,5r,6aS)-5-benzyl-5-hydroxyhexahydrocyclo-penta[c]pyrrol-2(1H)-yl)-1-(4-(2-methoxypyrimidin-5-yl)phenyl)ethanone]		
> 10	10	O=C(CN1C[C@@H]2C[C@@](O)(Cc3ccccc3)C[C@@H]2C1)c1cccc(-c2ccc(F)cc2)c1 [Example 274, 2-((3aR,5r,6aS)-5-benzyl-5-hydroxyhexahydrocyclo-penta[c]pyrrol-2(1H)-yl)-1-(4′-fluoro-[1,1′-biphenyl]-3-yl)ethanone]		
1 to 10	1.99	O=C(CN1C[C@@H]2C[C@@](O)(Cc3ccccc3Cl)C[C@@H]2C1)c1ccc(O)cn1 [Example 234, 2-((3aR,5r,6aS)-5-(2-chlorobenzyl)-5-hydroxyhexahydrocyclo-penta[c]pyrrol-2(1H)-yl)-1(5-hydroxypyridin-2-yl)ethanone]		
> 10	10	Cc1ccc(NC(=O)N2C[C@@H]3C[C@@](O)(Cc4ccccc4)C[C@@H]3C2)cc1 [Example 125, (3aR,5r,6aS)-5-benzyl-5-hydroxy-N-(p-tolyl) hexahydrocyclopenta [c]pyrrole-2(1H)-carboxamide]		
> 10	10	Cc1ccc(NC(=O)N2C[C@H]3C[C@@H](c4ccccc4)C[C@H]3C2)c(C)c1 [Example 110, N-(2,4-dimethylphenyl)-5-phenyl-octahydrocyclopenta[c] pyrrole-2-carboxamide]		
> 10	10	Cc1ccccc1[C@]1(O)C[C@H]2CN(c3ccccn3)C[C@H]2C1 [Example 82, 5-(2-methylphenyl)-2-(pyridin-2-yl)-octahydrocyclopenta[c] pyrrol-5-ol]		
< 0.1	0.0572	CO[C@@]1(Cc2ccccc2)C[C@H]2CN(CC(=O)c3ccc(O)cc3)C[C@H]2C1 [Example 174, 2-((3aR,5r,6aS)-5-benzyl-5-methoxyhexahydrocyclo-penta[c]pyrrol-2(1H)-yl)-1-(4-hydroxyphenyl)ethanone]		
> 10	10	O=C(CN1C[C@@H]2C[C@@](O)(Cc3ccccc3)C[C@@H]2C1)c1ncc(O)cn1 [Example 202, 2-[(3aR,5R,6aS)-5-benzyl-5-hydroxy-octahydrocyclopenta[c]pyrrol-2-yl]-1-(5-hydroxypyrimidin-2-yl)ethan-1-one]		
